Data on 34 compounds can be found in patent publication US10532985B2, “Heterocycle and carbocycle derivatives having TRKA inhibitory activity” (Shionogi & Co., Ltd., priority 2014, dated 2020).

Molecules are shown by their SMILES.

For data set [1], the target named is T1, human ether-a-go-go related gene (hERG) channel (Homo sapiens, UniProt Q12809).
T1 construct: expressed in transfected cells; host or cells: CHO cells
Put plainly: Test Example 3: hERG Test (whole cell patch clamp, IKr). Type of data set: cell-based. As to conditions: CHO cells expressing hERG. From the text: For the purpose of assessing risk of an electrocardiogram QT interval prolongation of the compound of the present invention, effects of the compound of the present invention on delayed rectifier K current (I r), which plays an important role in the ventricular repolarization process, was studied using CHO cells expressing human ether-a-go-go related gene (hERG) channel.
After a cell was retained at a membrane potential of −80 mV by whole cell patch clamp method using an automated patch clamp system (QPatch; Sophion Bioscience A/S), IKr induced by leak potential at −50 mV, and then depolarization pulse stimulation at +20 mV for 2 seconds and, further, repolarization pulse stimulation at −50 mV for 2 seconds, was recorded. After the generated current was stabilized, extracellular solution (NaCl: 145 mmol/L, KCl: 4 mmol/L, CaCl2: 2 mmol/L, MgCl2: 1 mmol/L, glucose: 10 mmol/L, HEPES (4-(2-hydroxyethyl)-1-piperazineethanesulfonic acid): 10 mmol/L, pH7.4), in which the compound of the present invention had been dissolved at an objective concentration, was applied to the cell at room temperature for 10 minutes. From the recording IKr, an absolute value of the tail peak current was measured based on the current value at the resting membrane potential using analysis software (Falster Patch; Sophion Bioscience A/S). Further, the % inhibition relative to the tail peak current before application of the compound of the present invention was calculated, and compared with the vehicle-applied group (0.1% dimethyl sulfoxide solution) to assess influence of the compound of the present invention on IKr.

Data set [2] deals with T2, human TrkA (Homo sapiens, UniProt P04629).
T2 construct: purchased Lifetechnologies PV3144
Kind of data set: Test Example 2-2: Human TrkA Inhibition Assay. Type of data set: biochemical. How it is done:
Seven point five μL per well of human TrkA (PV3144, Lifetechnologies, final concentration: 1 nmol/L) suspended in the assay buffer (100 mmol/L 4-(2-hydroxyethyl)-1-piperazineethanesulfonic acid (HEPES), 10 mmol/L magnesium chloride, 0.003 vol % Brij-35, 0.004 vol % Tween20 and 1 mmol/L dithiothreitol (DTT)) was applied in a 384 well plate and the plate was pre-incubated for 15 min at room temperature with 0.4 μL of each compound (final concentration: […]) dissolved in DMSO. Then, fluorescent substrate (FL-peptide 27, 760424, PerkinElmer, final concentration: 1.5 μmol/L) and ATP (final concentration […]) dissolved in the assay buffer was added in each well. After the incubation of 120 min at 37° C., fifteen μL of termination buffer (100 mmol/L HEPES, 40 mmol/L ethylenediaminetetraacetic acid (EDTA), 10 mmol/L magnesium chloride, 0.003 vol % Brij-35, 0.004 vol % Tween20, 1 mmol/L DTT and 0.16 vol % Coating Reagent 3) was added in each well to stop the enzyme reaction. Fluorescent intensities (FI) of phosphorylated and non-phosphorylated fluorescent substrates were measured by LabChip EZReader II (Caliper LifeSciences, Inc.), and conversion ratio (CR) was calculated by the following formula-1. The CR in the well applied with DMSO alone was used as a negative control and the CR in the well without applying TrkA was used as a positive control. The inhibitory effect of each compound on TrkA phosphorylation was calculated by the following formula-2. CR (%)=(FI of phosphorylated substrate/(FI of phosphorylated substrate+FI of non-phosphorylated substrate))×100 (Formula-1) Phosphorylation inhibition (%)=(1−(CR with compound treatment−CR of positive control)/(CR of negative control−CR of positive control))×100 (Formula-2) Inhibitory effect on TrkA phosphorylation (%)=(1−(CR in compound treated well−CR in positive control)/(CR in negative control−CR in positive control))×100.
The 50/o inhibitory concentration (IC50) was determined by the logistic regression using the inhibition data in 10 points at a range of 2 μmol/L to 0.1 nmol/L or 200 μmol/L to 10 nmol/L).

The target in data set [3] is T2, human TrkA. Kind of data set: Test Example 2: Human TrkA Inhibition Assay. Type of data set: biochemical. The following applies: Test Example 2. The procedure, abridged: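 Mobility-shift kinase assay: 90 min reaction at room temperature, stopped with EDTA buffer; phosphorylated and non-phosphorylated fluorescent substrate measured, conversion ratio calculated. Inhibition % normalised between DMSO-only wells and no-TrkA wells.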

Where [4] appears, read: human TrkA inhibition, class symbols A/B/C, read-out: IC50_nM.
Setting [5] is: human TrkA 2.5 nmol/L, ATP 500 μmol/L, 90 min at room temperature, read-out: TrkA inhibitory activity IC50.
[6] abbreviates: human TrkA 1 nmol/L, 120 min at 37° C., read-out: TrkA inhibition IC50.
[7] abbreviates: class symbols, read-out: IC50_nM.

T1 sequence (Q12809 whole entry): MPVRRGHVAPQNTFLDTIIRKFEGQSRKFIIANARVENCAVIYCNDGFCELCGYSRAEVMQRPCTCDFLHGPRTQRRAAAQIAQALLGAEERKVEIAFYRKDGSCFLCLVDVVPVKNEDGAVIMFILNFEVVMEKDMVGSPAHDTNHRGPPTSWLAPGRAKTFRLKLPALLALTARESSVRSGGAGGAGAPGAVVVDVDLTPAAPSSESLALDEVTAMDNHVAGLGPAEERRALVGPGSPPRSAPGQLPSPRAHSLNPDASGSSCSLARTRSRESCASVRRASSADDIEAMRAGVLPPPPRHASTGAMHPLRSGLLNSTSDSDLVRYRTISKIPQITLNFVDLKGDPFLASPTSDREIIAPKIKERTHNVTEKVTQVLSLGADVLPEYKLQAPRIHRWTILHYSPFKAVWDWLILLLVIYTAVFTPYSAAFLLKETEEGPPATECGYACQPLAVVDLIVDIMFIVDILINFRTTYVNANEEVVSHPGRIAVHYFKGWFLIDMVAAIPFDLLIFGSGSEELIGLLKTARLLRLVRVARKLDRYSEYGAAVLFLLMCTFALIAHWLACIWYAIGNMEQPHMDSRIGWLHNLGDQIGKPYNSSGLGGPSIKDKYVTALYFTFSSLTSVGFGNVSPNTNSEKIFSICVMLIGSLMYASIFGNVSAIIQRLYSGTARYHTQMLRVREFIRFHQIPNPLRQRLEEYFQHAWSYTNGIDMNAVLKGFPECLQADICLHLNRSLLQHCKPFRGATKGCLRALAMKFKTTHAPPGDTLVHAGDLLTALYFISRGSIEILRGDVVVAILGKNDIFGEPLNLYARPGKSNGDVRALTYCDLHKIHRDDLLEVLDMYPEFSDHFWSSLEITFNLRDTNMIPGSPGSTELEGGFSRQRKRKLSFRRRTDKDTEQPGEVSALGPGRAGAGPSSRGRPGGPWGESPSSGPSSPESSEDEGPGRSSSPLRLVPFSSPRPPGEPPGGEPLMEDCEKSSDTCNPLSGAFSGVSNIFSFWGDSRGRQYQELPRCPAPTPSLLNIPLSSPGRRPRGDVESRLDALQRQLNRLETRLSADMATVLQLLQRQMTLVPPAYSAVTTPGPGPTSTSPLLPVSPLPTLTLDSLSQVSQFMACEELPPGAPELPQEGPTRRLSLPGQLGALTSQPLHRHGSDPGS
T2 sequence (P04629 33-796): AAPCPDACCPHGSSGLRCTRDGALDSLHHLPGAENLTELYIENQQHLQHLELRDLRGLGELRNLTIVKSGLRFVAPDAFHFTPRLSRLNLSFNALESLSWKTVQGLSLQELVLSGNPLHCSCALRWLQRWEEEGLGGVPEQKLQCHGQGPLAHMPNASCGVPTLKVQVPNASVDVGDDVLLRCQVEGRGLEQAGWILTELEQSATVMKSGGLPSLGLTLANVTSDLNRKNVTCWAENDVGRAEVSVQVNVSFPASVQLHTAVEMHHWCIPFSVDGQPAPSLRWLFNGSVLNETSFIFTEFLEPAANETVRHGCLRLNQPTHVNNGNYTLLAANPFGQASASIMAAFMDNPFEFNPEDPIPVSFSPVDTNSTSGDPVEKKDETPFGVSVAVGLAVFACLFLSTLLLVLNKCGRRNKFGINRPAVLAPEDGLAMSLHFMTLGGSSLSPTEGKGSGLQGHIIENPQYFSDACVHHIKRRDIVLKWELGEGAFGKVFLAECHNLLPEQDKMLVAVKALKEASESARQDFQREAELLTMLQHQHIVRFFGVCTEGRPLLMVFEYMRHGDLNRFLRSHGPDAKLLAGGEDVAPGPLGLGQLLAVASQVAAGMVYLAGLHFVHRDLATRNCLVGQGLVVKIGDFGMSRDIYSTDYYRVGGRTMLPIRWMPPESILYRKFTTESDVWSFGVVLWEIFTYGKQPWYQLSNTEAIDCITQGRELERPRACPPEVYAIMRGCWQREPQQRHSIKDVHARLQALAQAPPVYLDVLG

As for `COCCC1C[C@@H](NC(=O)Nc2c(C)c(-c3cnn(C)c3)nn2-c2ccccc2)[C@H](c2ccc(O)c(O)c2)C1` (stereo partly shown) [Compound I-221], the “% inhibition of IKr (hERG tail peak current)” value (“% inhibition of IKr” below) in data set [1] is recorded as 13.2%. In addition, the IC50 in data set [2] (setting [4]) is below 100 nM.
Turning to `Cc1c(-c2cnn(C)c2)nn(-c2ccccc2)c1NC(=O)N[C@@H]1CN(Cc2ccco2)C[C@H]1c1ccc(F)c(F)c1` [Compound I-86], the IC50 in data set [3] (setting [5]) turned out to be 1.1 nM; in data set [2] (setting [6]), 1.8 nM.
Consider `Cc1c(-c2cnn(C)c2)nn(-c2ccccc2)c1NC(=O)N[C@@H]1CN(CCOCC(F)(F)F)C[C@H]1c1ccc(F)c(F)c1` [Compound I-22], for which the IC50 in data set [3] (setting [5]) turned out to be 35 nM; in data set [2] (setting [6]), 170 nM.
In the same order, the values of `COCCN1C[C@@H](NC(=O)Cc2c(C)c(-c3cnn(C)c3)nn2-c2ccccc2)[C@H](c2ccc(F)c(F)c2)C1` [Compound I-8] are 26 nM and 71 nM.
`COCC[C@@H]1C[C@@H](NC(=O)Nc2c(C)c(-c3cnn(C)c3)nn2-c2ccccc2)[C@H](c2ccc(F)c(F)c2)N1C` [Compound I-214]: the “% inhibition of IKr” value in data set [1] worked out at 20.2%. In data set [2] (setting [4]), the IC50 is below 100 nM.
Turning to `COCC[C@@H]1C[C@@H](NC(=O)Nc2c(C)c(-c3cnn(C)c3)nn2-c2ccccc2)[C@H](c2ccccc2)C1` [Compound I-084], in data set [1], the “% inhibition of IKr” value turned out to be 10.0%.
On to `COCC[C@@H]1C[C@@H](NC(=O)Nc2c(C)c(-c3cnn(C)c3)nn2-c2ccccc2)[C@H](c2ccccc2)C1` [Compound I-84], for which the results for the IC50 in data set [3] (setting [5]) and in data set [2] (setting [6]) were 0.72 nM and 1.5 nM, respectively.
In the same order, the values of `CNC(=O)C(COC)N1C[C@@H](NC(=O)Nc2c(C)c(-c3cnn(C)c3)nn2-c2ccccc2)[C@H](c2ccc(F)c(F)c2)C1` (stereo partly shown) [Compound I-109] are 95 nM and 220 nM.
In the same order, the values of `CC=C1C[C@@H](NC(=O)Nc2c(C)c(-c3cnn(C)c3)nn2-c2ccccc2)[C@H](c2ccccc2)C1` [Compound I-102] are 43 nM and 21 nM.
`COCC(=O)N1C[C@@H](NC(=O)Nc2c(C)c(-c3cnn(C)c3)nn2-c2ccccc2)[C@H](c2ccc(F)c(F)c2)C1` [Compound I-026]: the “% inhibition of IKr” value in data set [1] amounted to 3.3%.
Consider `COCC[C@@H]1C[C@@H](NC(=O)Nc2c(C)c(-c3cnc(C)nc3)nn2-c2ccccc2)[C@H](c2ccc(F)c(F)c2)N1C` [Compound I-255], for which the “% inhibition of IKr” value in data set [1] is reported as 10.2%. Also, the IC50 in data set [2] (setting [6]) came out at 1.1 nM.
As to `C=C1C[C@@H](NC(=O)Nc2c(C)c(-c3cnn(C)c3)nn2-c2ccccc2)[C@H](c2ccccc2)C1` (racemic) [Compound I-29], in data set [3] (setting [4]), the IC50 was below 100 nM. Moreover, the “% inhibition of IKr” value in data set [1] is recorded as 21.2%.
Consider `COCCN1C[C@@H](OC(=O)Nc2c(C)c(-c3cnn(C)c3)nn2-c2ccccc2)[C@H](c2ccc(F)c(F)c2)C1` (racemic) [Compound I-1], for which the IC50 was 83 nM in data set [3] (setting [5]) and 120 nM in data set [2] (setting [6]).
With `COCCC1C[C@@H](NC(=O)Nc2c(C)c(-c3cnn(C)c3)nn2-c2ccccc2)[C@H](c2ccc(F)c(F)c2)N1` (stereo partly shown) [Compound I-91], the IC50 was determined as 7.8 nM in data set [3] (setting [5]) and 37 nM in data set [2] (setting [6]).
As for `COCCN1C[C@@H](NC(=O)Nc2c(C)c(-c3cnn(C)c3)nn2-c2ccccc2)[C@H](c2ccc3c(c2)OCO3)C1` (racemic) [Compound I-94], the results for the IC50 in data set [3] (setting [5]) and in data set [2] (setting [6]) were 22 nM and 210 nM, respectively.
As to `Cc1c(-c2cnn(C)c2)nn(-c2ccccc2)c1NC(=O)N[C@@H]1C[C@@H](Oc2ccncc2)C[C@H]1c1ccccc1` (racemic) [Compound I-225], the IC50 in data set [2] (setting [6]) is 120 nM.
For `Cc1c(-c2cnn(C)c2)nn(-c2ccccc2)c1NC(=O)N[C@@H]1C[C@@H](Oc2ccccn2)C[C@H]1c1ccccc1` (racemic) [Compound I-223], the IC50 in data set [2] (setting [4]) is above 1000 nM.
For `COCC[C@@H]1C[C@@H](NC(=O)Nc2c(C)c(-c3cnc(CO)nc3)nn2-c2ccccc2)[C@H](c2ccccc2)C1` [Compound I-269], the IC50 in data set [2] (setting [6]) stood at 1.3 nM.
On to `COCCN1C[C@@H](NC(=O)Nc2c(C)c(-c3cnn(C)c3)nn2-c2ccccc2)[C@](C)(c2ccccc2)C1` (racemic) [Compound I-16], for which the IC50 in data set [3] (setting [5]) stood at 121 nM; in data set [2] (setting [6]), 410 nM.
On to `COCC[C@@H]1C[C@@H](NC(=O)Nc2c(C)c(-c3ccc(C(=O)O)cc3)nn2-c2ccccc2)[C@H](c2ccc(F)c(F)c2)N1` [Compound I-260], for which the IC50 in data set [2] (setting [4]) was below 100 nM.
On to `Cc1c(-c2cnn(C)c2)nn(-c2ccccc2)c1NC(=O)N[C@@H]1CC(C)C[C@H]1c1ccc(F)c(F)c1` (stereo partly shown) [Compound I-163], for which the IC50 in data set [2] (setting [4]) is 100 to 1000 nM.
On to `COCCC1C[C@@H](NC(=O)Nc2c(C)c(-c3cnn(C)c3)nn2-c2ccccc2)[C@H](c2ccc(F)c(F)c2)N1C` (stereo partly shown) [Compound I-87], for which the results for the IC50 in data set [3] (setting [5]) and in data set [2] (setting [6]) were 1.8 nM and 5.4 nM, respectively.
`COCCC1C[C@@H](NC(=O)Nc2cc(-c3ccc(C(=O)O)cc3)nn2C)[C@H](c2ccccc2)C1` (stereo partly shown) [Compound I-199]: in data set [2] (setting [4]), the IC50 is above 1000 nM.
Turning to `COCC(CO)[C@@H]1C[C@@H](NC(=O)Nc2c(C)c(-c3cnn(C)c3)nn2-c2ccccc2)[C@H](c2ccccc2)C1` (stereo partly shown) [Compound I-239], the IC50 in data set [2] (setting [6]) was found to be 76 nM.
The same measure, in the same setting: for `COCC[C@@H]1C[C@@H](NC(=O)Nc2c(C)c(-c3cnc(C)nc3)nn2-c2ccccc2)[C@H](c2ccc(F)c(F)c2)C1` [Compound I-254] the value was 0.73 nM.
`Cc1c(-c2cnn(C)c2)nn(-c2ccccc2)c1NC(=O)N[C@@H]1CN(CCOC(C)C)C[C@H]1c1ccc(F)c(F)c1` [Compound I-217]: the IC50 in data set [2] (setting [4]) was below 100 nM.
With `COCC[C@@H]1C[C@@H](NC(=O)Nc2c(C)c(-c3cnn(C)c3)nn2-c2ccccc2)[C@H](c2ccccc2)[C@H]1C(F)F` [Compound I-253], in data set [2] (setting [4]), the IC50 was below 100 nM.
On to `COCC(O)C1C[C@@H](NC(=O)Nc2c(C)c(-c3cnn(C)c3)nn2-c2ccccc2)[C@H](c2ccccc2)C1` (stereo partly shown) [Compound I-271], for which the IC50 in data set [2] (setting [7]) is 100 to 1000 nM.
As for `COCCN1C[C@@H](NC(=O)Nc2c(C)c(-c3cnn(C)c3)nn2-c2ccccc2)[C@H](C2=CCCCC2)C1` (racemic) [Compound I-218], the IC50 in data set [2] (setting [6]) turned out to be 270 nM.
As for `COCCN1C[C@@H](NC(=O)Nc2c(C)c(-c3cnn(C)c3)nn2-c2ccccc2)[C@H](c2ccnc(OC)c2)C1` (racemic) [Compound I-228], the IC50 in data set [2] (setting [4]) lay in the range of 100 to 1000 nM.
Same read-out and setting: next, `COCC[C@@H]1C[C@@H](NC(=O)Nc2c(C)c(C3=CCN(C(=O)OC(C)(C)C)CC3)nn2-c2ccccc2)[C@H](c2ccc(F)c(F)c2)N1C` [Compound I-259]: below 100 nM; `COCC[C@@H]1C[C@@H](NC(=O)Nc2c(C)c(-c3cnc(C)nc3)nn2-c2ccccc2)[C@H](c2ccccc2)C1` [Compound I-263]: below 100 nM.
As for `COCC[C@@H]1C[C@@H](NC(=O)Nc2c(C)c(-c3cnn(C)c3)nn2-c2ccccc2)[C@](O)(c2ccccc2)C1` [Compound I-273], the IC50 in data set [2] (setting [7]) is above 1000 nM.
As to `COCC(O)[C@H]1C[C@@H](NC(=O)Nc2c(C)c(-c3cnn(C)c3)nn2-c2ccccc2)[C@H](c2ccc(F)c(F)c2)N1` (stereo partly shown) [Compound I-215], the IC50 in data set [2] (setting [4]) was in the range of 100 to 1000 nM.
